Laboratory results reported in PMC7759869 (Biomedicines, 2020).
Where two headings read alike, the source gives them in different places. Marks after values point to notes of the source that are not given here.

Tests used:
human liver microsomes [1] = assay: Oxidation of cabozantinib by hepatic microsomes of individual human donors (HPLC of metabolites); format: in vitro ADME; settings: 50 µM cabozantinib, 20 min
Text: (§1) Cabozantinib was from MedChemExpress (Monmouth Junction, NJ, USA). Standard of cabozantinib N-oxide was purchased from Toronto Research Chemicals (Toronto, Canada). Ketoconazole, NADPH and other chemicals were all purchased from Merck (Darnstadt, Germany). The purity of all chemicals met the standards of American Chemical Society, unless otherwise noted. Male human hepatic microsomes (pooled sample) (sample LOT: 3043885) were from Gentest Corp. (Woburn, MA, USA). Microsomes from livers of twelve human donors were obtained from Gentest Corp. (Woburn, MA, USA) (Lot. no. HG43-1, HG103, HG74, HG93, HG24, HG27, HG23, HG32, HK31, HK34, HG03 and HG42). Each human microsomal sample was characterized for CYP, FMO, total protein contents and specific CYP activities by Gentest Corp. and reanalyzed by us by assays described in the protocols of Gentest Corp. Our data were similar to those reported by Gentest Corp. (Table 1). Human recombinant enzymes were used in the forms of Supersomes™ and obtained from Corning (Corning, NY, USA). In Supersomes™, microsomal fractions were isolated from insect cells that were transfected with baculovirus constructs containing cDNA of human CYP enzymes (CYP1A1/2, 1B1, 2A6, 2B6, 2C8/9/18/19/, 2D6, 2E1, 3A4). The Supersomes™ also express NADPH:CYP oxidoreductase (POR). However, because they are microsomes (particles of broken endoplasmic reticulum), other enzymes (proteins) of the endoplasmic reticulum membrane (like NADH:cytochrome b5 reductase and cytochrome b5) are also expressed at basal levels in these Supersomes™. We also utilized Supersomes™, which overexpressed cytochrome b5, in a molar ratio of CYP to cytochrome b5 of 1 to 5. In Supersomes™, where cytochrome b5 was not overexpressed (see above), pure cytochrome b5 was added to reach a molar ratio of CYP to cytochrome b5 of 1 to 5. Reconstitution of Supersomes™ with purified cytochrome b5 was performed as described previously. Human recombinant FMOs and AO were also used in the forms of Supersomes™ (Gentest Corp., Woburn, MA, USA). These microsomal fractions were isolated from insect cells that are transfected with baculovirus constructs containing cDNA of human FMO1, FMO3, FMO5 or AO enzymes.
(§2) The reaction was initiated by adding NADPH. In control incubations, either microsomes or CYP (FMO, AO) or NADPH were omitted. […] The reaction was stopped by extraction with ethyl acetate (2 × 1 mL). […] Cabozantinib metabolites separated by HPLC were characterized by mass spectroscopy (see further details below).

human liver microsomes [2] = assay: Correlation of CYP- and FMO-linked catalytic activities with amounts of cabozantinib metabolites formed in microsomes; format: in vitro ADME; settings: twelve human microsomal samples; for Correlation coefficient (r) with CYP2C19 activity: (S)-Mephenytoin-4′-hydroxylase; for Correlation coefficient (r) with CYP2B6 activity: (S)-Mephenytoin-N-demethylase; for Correlation coefficient (r) with CYP2D6 activity: Buferalol-1′-hydroxylase; for Correlation coefficient (r) with CYP2E1 activity: Chlorzoxazone-6-hydroxylase; for Correlation coefficient (r) with CYP2A6 activity: Coumarine-7-hydroxylase; for Correlation coefficient (r) with CYP2C9 activity: Diclofenac-4′-hydroxylase; for Correlation coefficient (r) with CYP4A11 activity: Lauric acid-12-hydroxylase; for Correlation coefficient (r) with FMO activity: Methyl-p-tolyl sulfide oxidase; for Correlation coefficient (r) with CYP2C8 activity: Paclitaxel-6α-hydroxylase; for Correlation coefficient (r) with CYP1A2 activity: Phenacetin-O-deethylase; for Correlation coefficient (r) with Total CYPs: amount of metabolite formed vs total CYP content
Experimental: Data are expressed as mean ± SD. Data were analyzed using GraphPad Prism 7 (San Diego, CA, USA) using ANOVA with post-hoc Tukey HSD Test. All p-values are two-tailed and considered significant at the 0.05 level. […] Correlation coefficients (r) were based on a sample size of twelve for human microsomes. All p-values are two-tailed and considered significant at the 0.05 level.
To clarify these correlations, multivariate analysis was used to investigate the dependence of metabolite formation on these CYP activities. Activities of CYP2A6, -2B6 and -2C8 in each microsomal sample were combined in pairs with the activities of CYP3A4 to see if any combination of the activities led to an improvement in the correlation with CYP3A4.

CYP3A4 + cyt b5 = molecular target: T1, CYP3A4 + cyt b5 (Homo sapiens, UniProt P08684); assay: Cabozantinib oxidation by recombinant CYP3A4 in the presence of cyt b5 (Supersomes); format: in vitro ADME; settings: for VMax: formation of the metabolite from cabozantinib by CYP3A4 + cyt b5
T1 construct: purchased Corning (Corning, NY, USA); host or cells: insect cells (baculovirus)
T1 sequence (P08684 whole entry): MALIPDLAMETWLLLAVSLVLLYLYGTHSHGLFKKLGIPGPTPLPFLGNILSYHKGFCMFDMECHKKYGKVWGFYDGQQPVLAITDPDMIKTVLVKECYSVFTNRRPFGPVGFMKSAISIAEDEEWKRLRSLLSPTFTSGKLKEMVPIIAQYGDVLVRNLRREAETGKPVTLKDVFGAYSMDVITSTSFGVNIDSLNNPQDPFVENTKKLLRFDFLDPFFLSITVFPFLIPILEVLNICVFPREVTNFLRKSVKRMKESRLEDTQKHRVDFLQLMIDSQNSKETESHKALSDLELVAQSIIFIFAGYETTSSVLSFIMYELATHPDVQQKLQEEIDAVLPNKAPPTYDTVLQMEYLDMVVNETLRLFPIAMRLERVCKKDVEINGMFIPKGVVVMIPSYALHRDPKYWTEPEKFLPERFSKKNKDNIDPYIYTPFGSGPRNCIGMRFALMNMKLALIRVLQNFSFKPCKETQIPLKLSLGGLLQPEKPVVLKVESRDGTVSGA
Text: as §1, §2

CYPs in human liver = assay: Contributions of CYP enzymes to formation of cabozantinib metabolites in human livers; format: in vitro ADME; settings: calculated from velocities with cyt b5 and CYP expression levels in human liver
human liver microsomes [3] = assay: Oxidation of cabozantinib by hepatic microsomes of individual human donors (HPLC of metabolites); format: in vitro ADME; settings: 50 µM cabozantinib, 20 min; remark: listed apart in the source
CYP3A4 = CYP3A4 (Homo sapiens, UniProt P08684); assay: Kinetics of cabozantinib oxidation by recombinant CYP3A4 (Supersomes); format: in vitro ADME; design: purchased Corning (Corning, NY, USA); host or cells: insect cells (baculovirus); settings: formation of the metabolite from cabozantinib by CYP3A4 without cyt b5
CYP3A4, sequence (P08684 whole entry): as above
Text: Cabozantinib was from MedChemExpress (Monmouth Junction, NJ, USA). Standard of cabozantinib N-oxide was purchased from Toronto Research Chemicals (Toronto, Canada). Ketoconazole, NADPH and other chemicals were all purchased from Merck (Darnstadt, Germany). The purity of all chemicals met the standards of American Chemical Society, unless otherwise noted. Male human hepatic microsomes (pooled sample) (sample LOT: 3043885) were from Gentest Corp. (Woburn, MA, USA). Microsomes from livers of twelve human donors were obtained from Gentest Corp. (Woburn, MA, USA) (Lot. no. HG43-1, HG103, HG74, HG93, HG24, HG27, HG23, HG32, HK31, HK34, HG03 and HG42). Each human microsomal sample was characterized for CYP, FMO, total protein contents and specific CYP activities by Gentest Corp. and reanalyzed by us by assays described in the protocols of Gentest Corp. Our data were similar to those reported by Gentest Corp. (Table 1). Human recombinant enzymes were used in the forms of Supersomes™ and obtained from Corning (Corning, NY, USA). In Supersomes™, microsomal fractions were isolated from insect cells that were transfected with baculovirus constructs containing cDNA of human CYP enzymes (CYP1A1/2, 1B1, 2A6, 2B6, 2C8/9/18/19/, 2D6, 2E1, 3A4). The Supersomes™ also express NADPH:CYP oxidoreductase (POR). […]

[4] = molecular target: cabozantinib oxidation in pooled human liver microsomes (Homo sapiens, UniProt P08684); assay: Inhibition study: effect of CYP inhibitors on cabozantinib oxidation in pooled human liver microsomes; settings: pooled human liver microsomes, 50 µM cabozantinib
cabozantinib oxidation in pooled human liver microsomes, sequence (P08684 2-503): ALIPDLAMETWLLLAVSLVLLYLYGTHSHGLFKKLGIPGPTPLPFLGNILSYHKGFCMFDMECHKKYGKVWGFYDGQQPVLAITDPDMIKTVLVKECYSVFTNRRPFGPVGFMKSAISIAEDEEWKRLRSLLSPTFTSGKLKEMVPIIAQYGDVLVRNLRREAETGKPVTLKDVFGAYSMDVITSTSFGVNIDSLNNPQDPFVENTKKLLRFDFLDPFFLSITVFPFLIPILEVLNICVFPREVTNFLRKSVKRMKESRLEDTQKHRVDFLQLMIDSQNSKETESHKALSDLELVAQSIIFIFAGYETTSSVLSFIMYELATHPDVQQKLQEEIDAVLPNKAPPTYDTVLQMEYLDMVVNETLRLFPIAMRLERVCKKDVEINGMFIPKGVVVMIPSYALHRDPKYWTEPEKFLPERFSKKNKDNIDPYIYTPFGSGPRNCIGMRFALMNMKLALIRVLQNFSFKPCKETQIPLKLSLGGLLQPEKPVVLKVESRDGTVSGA
Experimental: (§3) Inhibition studies in pooled human liver microsomes were conducted with six inhibitors. […] The IC50 values for employed inhibitors were determined by the procedure described previously. […] Then, mixtures were incubated for a further 20 min at 37 °C.

RET = settings: estimated; cited from earlier work
MET = settings: read-out: IC50 for MET; estimated; cited from earlier work
VEGFR2 = settings: read-out: IC50 for VEGFR2; estimated; cited from earlier work
[5] = molecular target: CYP3A (cabozantinib oxidation: formation of cabozantinib N-oxide) (Homo sapiens, UniProt P08684); assay: Inhibition study: effect of CYP inhibitors on cabozantinib oxidation in pooled human liver microsomes; settings: human
CYP3A (cabozantinib oxidation: formation of cabozantinib N-oxide), sequence (P08684 2-503): as above
Experimental: as §3

[6] = molecular target: CYP3A (cabozantinib oxidation: formation of desmethyl cabozantinib) (Homo sapiens, UniProt P08684); assay: as above; settings: human
CYP3A (cabozantinib oxidation: formation of desmethyl cabozantinib), sequence (P08684 2-503): as above
Experimental: as §3

[7] = molecular target: CYP3A (cabozantinib oxidation: formation of monohydroxy cabozantinib) (Homo sapiens, UniProt P08684); assay: as above; settings: human
CYP3A (cabozantinib oxidation: formation of monohydroxy cabozantinib), sequence (P08684 2-503): as above
Experimental: as §3

[8] = human liver microsomes sample HG03
[9] = human liver microsomes sample HG24
[10] = human liver microsomes sample HG32
[11] = human liver microsomes sample HG42
[12] = human liver microsomes sample HG43
[13] = human liver microsomes sample HG74
[14] = human liver microsomes sample HG93
[15] = human liver microsomes sample HG103
[16] = human liver microsomes sample HK31
[17] = human liver microsomes sample HK34
[18] = human liver microsomes sample HK23
[19] = human liver microsomes sample HK27

COc1cc2c(Oc3ccc(NC(=O)C4(C(=O)Nc5ccc(F)cc5)CC4)cc3)ccnc2cc1O [M2, desmethyl cabozantinib]
Amounts of cabozantinib metabolites (human liver microsomes [1]; [8]): 0.335 peak area/incubation time | Amounts of cabozantinib metabolites (human liver microsomes [1]; [9]): 0.149 peak area/incubation time | Amounts of cabozantinib metabolites (human liver microsomes [1]; [10]): 0.185 peak area/incubation time | Amounts of cabozantinib metabolites (human liver microsomes [1]; [11]): 0.329 peak area/incubation time | Amounts of cabozantinib metabolites (human liver microsomes [1]; [12]): 0.625 peak area/incubation time | Amounts of cabozantinib metabolites (human liver microsomes [1]; [13]): 0.256 peak area/incubation time | Amounts of cabozantinib metabolites (human liver microsomes [1]; [14]): 0.371 peak area/incubation time | Amounts of cabozantinib metabolites (human liver microsomes [1]; [15]): 0.144 peak area/incubation time | Amounts of cabozantinib metabolites (human liver microsomes [1]; [16]): 0.377 peak area/incubation time | Amounts of cabozantinib metabolites (human liver microsomes [1]; [17]): 0.305 peak area/incubation time | Correlation coefficient (r) with CYP2C19 activity (human liver microsomes [2]): 0.033 | Correlation coefficient (r) with CYP2B6 activity (human liver microsomes [2]): 0.695 * | Correlation coefficient (r) with CYP2D6 activity (human liver microsomes [2]): −0.015 | Correlation coefficient (r) with CYP2E1 activity (human liver microsomes [2]): 0.140 | Correlation coefficient (r) with CYP2A6 activity (human liver microsomes [2]): 0.841 *** | Correlation coefficient (r) with CYP2C9 activity (human liver microsomes [2]): 0.086 | Correlation coefficient (r) with CYP4A11 activity (human liver microsomes [2]): 0.193 | Correlation coefficient (r) with FMO activity (human liver microsomes [2]): 0.315 | Correlation coefficient (r) with CYP2C8 activity (human liver microsomes [2]): 0.654 * | Correlation coefficient (r) with CYP1A2 activity (human liver microsomes [2]): 0.280 | Correlation coefficient (r) with Total CYPs (human liver microsomes [2]): 0.794 ** | VMax (CYP3A4 + cyt b5): 5.70 ± 0.24 peak area/min/nmol CYP | Contribution of CYPs other than CYP3A4 to formation of the metabolite in human liver (CYPs in human liver): less than 1% | Amounts of cabozantinib metabolites (human liver microsomes [3]; [18]): 0.130 peak area/incubation time | Amounts of cabozantinib metabolites (human liver microsomes [3]; [19]): 0.467 peak area/incubation time | VMax (CYP3A4): 1.44 ± 0.03 peak area/min/nmol CYP

Cc1ccc(-c2c(-c3nn(C)c4ncnc(N5CC[C@H](N6CCCCC6)C5)c34)cnn2C)cc1 [CYP3cide]
IC50 ([4]; read-out: IC50 for inhibition of formation of cabozantinib N-oxide): < 10 nM | IC50 ([4]; read-out: IC50 for inhibition of formation of desmethyl cabozantinib): < 10 nM | IC50 ([4]; read-out: IC50 for inhibition of formation of monohydroxy cabozantinib): 1120 nM

COc1cc2c(Oc3ccc(NC(=O)C4(C(=O)Nc5ccc(F)cc5)CC4)cc3)cc[n+]([O-])c2cc1OC [M3, cabozantinib N-oxide]
Amounts of cabozantinib metabolites (human liver microsomes [1]; [8]): 1.672 peak area/incubation time | Amounts of cabozantinib metabolites (human liver microsomes [1]; [9]): 0.752 peak area/incubation time | Amounts of cabozantinib metabolites (human liver microsomes [1]; [10]): 1.338 peak area/incubation time | Amounts of cabozantinib metabolites (human liver microsomes [1]; [11]): 1.609 peak area/incubation time | Amounts of cabozantinib metabolites (human liver microsomes [1]; [12]): 3.491 peak area/incubation time | Amounts of cabozantinib metabolites (human liver microsomes [1]; [13]): 1.106 peak area/incubation time | Amounts of cabozantinib metabolites (human liver microsomes [1]; [14]): 1.935 peak area/incubation time | Amounts of cabozantinib metabolites (human liver microsomes [1]; [15]): 0.644 peak area/incubation time | Amounts of cabozantinib metabolites (human liver microsomes [1]; [16]): 1.537 peak area/incubation time | Amounts of cabozantinib metabolites (human liver microsomes [1]; [17]): 1.359 peak area/incubation time | Correlation coefficient (r) with CYP2C19 activity (human liver microsomes [2]): −0.021 | Correlation coefficient (r) with CYP2B6 activity (human liver microsomes [2]): 0.776 ** | Correlation coefficient (r) with CYP2D6 activity (human liver microsomes [2]): −0.043 | Correlation coefficient (r) with CYP2E1 activity (human liver microsomes [2]): 0.030 | Correlation coefficient (r) with CYP2A6 activity (human liver microsomes [2]): 0.728 ** | Correlation coefficient (r) with CYP2C9 activity (human liver microsomes [2]): 0.130 | Correlation coefficient (r) with CYP4A11 activity (human liver microsomes [2]): 0.223 | Correlation coefficient (r) with FMO activity (human liver microsomes [2]): 0.341 | Correlation coefficient (r) with CYP2C8 activity (human liver microsomes [2]): 0.737 ** | Correlation coefficient (r) with CYP1A2 activity (human liver microsomes [2]): 0.216 | Correlation coefficient (r) with Total CYPs (human liver microsomes [2]): 0.811 ** | Increase of oxidation / metabolite formation by co-expression of cyt b5 with CYP3A4 (CYP3A4 + cyt b5; Supersomes with cyt b5 vs without, 50 µM cabozantinib): 4.6 fold | VMax (CYP3A4 + cyt b5): 9.96 ± 0.92 peak area/min/nmol CYP | Contribution of CYPs other than CYP3A4 to formation of the metabolite in human liver (CYPs in human liver): less than 1% | Amounts of cabozantinib metabolites (human liver microsomes [3]; [18]): 0.607 peak area/incubation time | Amounts of cabozantinib metabolites (human liver microsomes [3]; [19]): 2.228 peak area/incubation time | IC50 (RET): > 1000 nM | IC50 (MET): 190 nM | IC50 (VEGFR2): 140 nM | VMax (CYP3A4): 1.54 ± 0.04 peak area/min/nmol CYP

CC(=O)N1CCN(c2ccc(OCC3COC(Cn4ccnc4)(c4ccc(Cl)cc4Cl)O3)cc2)CC1 (centres unmarked) [ketoconazole]
IC50 at 20 min [5]: < 10 nM | IC50 at 20 min [6]: < 10 nM | IC50 at 20 min [7]: < 10 nM
